Like-named read-outs stand apart in the source and are kept apart here.
Legend:
[1] = Overall hormonal profile summarised from Tables 2, 3 and 4
[2] = system: ovariectomized (OVX) rats; assay: Serum cholesterol level in ovariectomized (OVX) rats after 4 weeks dosing; format: in vivo, rat; details: for Effect on cholesterol (in words): OVX rats, Table 4; for Cholesterol level (mmol/l) in serum: OVX rat, 4 weeks dosing
Excerpt: Estimation of Effects to Cholesterol and Bone
Compounds were given p.o. to female rats for 4 or 5 weeks daily. At the end a blood sample was taken. Serum was separated by centrifugation and frozen until analyzed for total amount of cholesterol. Bone samples were taken from vertebra and tibia. Physical strength of the bones was studied as described by Peng et al, 1994.

MCF-7 cells = assay: cells; format: cell-based; details: for cytotoxicity at 10 µM / inhibition at 1 µM / Emax: Homo sapiens, MCF7, 96 h; for cytotoxicity at 10 µM / Maximal Cell Kill (% fraction of dead cells): 10 μmol/l; for cytotoxicity at 10 µM: read-out: Maximal Cell Kill (% fraction of dead cells); for inhibition at 1 µM: read-out: Antagonism at 1 μM (% of full antagonism); for Emax: read-out: Maximal Agonism (% of E2)
Procedure: Evaluation of Estrogenic and Antiestrogenic Properties of Compounds in MCF-7 Cell Growth Experiments in Vitro
For experiments involving hormone or anti-hormone treatment, the cells in exponential growth phase were precultivated in the absence of estradiol for one day. […] After the incubation period the medium was removed. The exposure to study drugs was started immediately by adding fresh medium with 5% stripped serum. Half of the cells were grown with estradiol, half without estradiol. Study compounds (dissolved in ethanol in 0.01 M concentration and diluted with the growth medium as appropriate) were added. The final concentrations of the compounds were 1, 10, and 100 nM, and 1 and 10 μM. The cells were incubated for four days.
This method allows evaluation of estrogenicity based on the ability of the compounds to stimulate the growth of the estrogen-dependent cells in the absence of estradiol.
Estrogenicity was estimated by comparing the maximal growth stimulus (at any concentration) of study compound as percent from growth stimulus by estradiol (100% stimulus). […] At high concentrations molecules may also show toxicity. Toxicity was estimated as the fraction of dead cells (i.e. 100% means that all cells have died during the exposure).

ovariectomized rats [3] = assay: Maximal load of femoral neck (cantilever bending test) in ovariectomized rats after 4 weeks dosing; format: in vivo, rat; details: OVX rats, 3.0 mg/kg p.o.
Procedure: (§1) Compounds were given p.o. to female rats for 4 or 5 weeks daily. At the end a blood sample was taken. Serum was separated by centrifugation and frozen until analyzed for total amount of cholesterol. Bone samples were taken from vertebra and tibia. Physical strength of the bones was studied as described by Peng et al, 1994. The assessments of the bone included:
Mechanical Testing of Bones
The mechanical testing of bones was carried out by materials testing machine, constructed in-house at Oulu University (Technical Services Dcpartment of the Medical Faculty). The testing machine is based on lever arm principle. One end of a steel lever is fixed. The pressing rod and the driving motor are connected to the lever arm with a moment ratio of 12.5 cm/50 cm=¼. As a driving motor a linear actuator (SEY 10 Magnetic Elektromotoren AG, Switzerland) is used to obtain constant vertical movement (0.62 cm/s). The interchangeable compression head is mounted on the pressing rod for different tests transmitting compressive force to the specimen, and moving at a constant speed of 0.155 mm/s up to a maximal load capacity of 1200 N. The pressing rod is guided via an axial ball bearing to keep the movement vertical. Compressive force is measured by a temperature-compensated force sensor, which is attached to the stationary part of the compression stage. The measuring electronics include sensor calibration and adjustments.
The maximal load on the femoral neck was measured by the cantilever bending test. The supporter for the bone was a thick polymethyl methacrylate plate in which several holes of different sizes were drilled. On one side of each hole a groove was engraved for the […] trochanter of the femur. The femur was cut exactly between the middle and lower third of the shaft. The bone was inserted perpendicularly and tightly into a suitable hole on the supporter. The lesser trochanter of each bone touched the surface of the plate. This procedure allowed rapid and stable fixation of the bone without using any additional embedding materials. […]

ovariectomized rats [4] = assay: Ash weight of tibial epiphyses in ovariectomized rats after 4 weeks dosing; format: in vivo, rat; details: OVX rats, 3.0 mg/kg p.o.
Excerpt: as §1
Ash Weight of Tibial Epiphyses
Epiphyses of one tibia was carefully prepared and burned. Samples were burned to remove water and organic material. Ash weight relates to the mineral content of the bone. In addition, bone samples were taken to study the histomorphometry. In some cases the bone formation was studied by injecting tetracycline (50 mg/kg i.p. 10 days before autopsy) and calcein (20 mg/kg i.p. 3 days before autopsy). The method is based on permanent binding of tetracycline into growing bone and its detection by fluorescence (Peng et al, 1994).

ovariectomized rats [5] = assay: Size of the uterus after 4 weeks treatment of ovariectomized rats; format: in vivo, rat; details: 1.0 mg/kg peroral daily
[6] = system: DMBA-induced rat mammary gland cancer; assay: Antitumor activity in DMBA-induced rat mammary gland cancer model; format: in vivo; details: 3 mg/kg p.o. daily for 5 weeks
Procedure: Estimation of Antitumor Activity in Vivo
Antitumor activity was estimated by using DMBA (dimethylbenz[a] anthracene) model. One single peroral dose of DMBA (12 mg) initiates mammary gland carcinogenesis. New compounds were administered for 5 weeks when palpable tumors appeared. Size of the tumors and number of new tumors were carefully estimated once a week until termination. The model has been described in detail by Kangas et al, 1986. The growth of the tumors was measured once a week. All tumors were classified according to their growth properties to progressing, stable and regressing ones. Disappeared tumors were separately calculated. The tumors were considered to be progressing, if the tumor volume grew more than 8-fold during the 5 weeks dosing period, and regressing if the tumor volume decreased to one fourth or less from the volume in the beginning. If tumor volume changed less or remained unchanged, the tumors were considered to be stable.

[7] = Without estradiol (E2), maximal growth stimulus at any concentration, 4 days

## CN(C)CCOc1ccc(/C(=C(/CCCl)c2ccccc2)c2ccc(Cl)cc2)cc1 [No. 3, (E)-(2-{4-[4-Chloro-1-(4-chlorophenyl)-2-phenylbut-1-enyl]phenoxy}ethyl)-dimethylamine]
[1]
  Estrogenic and antiestrogenic action (in words): weak estrogenic and no antiestrogenic action
[2]
  Effect on cholesterol (in words): decrease cholesterol
MCF-7 cells; 10 μM, compounds with weak hormonal activity
  Killing of MCF-7 cells at the highest investigated concentration (in words): kill MCF-7 cells (human breast cancer cells) effectively

## OCC(O)COc1ccc(/C(=C(/CCCl)c2ccccc2)c2ccc(Cl)cc2)cc1 (centres unmarked) [No. 10, (E)-3-{4-[4-Chloro-1-(4-chlorophenyl)-2-phenyl-but-1-enyl]phenoxy}propane-1,2-diol]
[1]
  Estrogenic and antiestrogenic action (in words): weak estrogenic and no antiestrogenic action
MCF-7 cells; With estradiol (E2)
  cytotoxicity at 10 µM: 35%
MCF-7 cells; Without estradiol (E2)
  cytotoxicity at 10 µM: 7%
MCF-7 cells; With estradiol (E2), 1 μM
  inhibition at 1 µM: 0%
MCF-7 cells; [7]
  Emax: 34%

## OCCOc1cccc(/C(=C(/CCCl)c2ccccc2)c2ccccc2)c1 [No. 18, (Z)-2-[3-(4-Chloro-1,2-diphenyl-but-1-enyl)phenoxy]ethanol]
[1]
  Estrogenic and antiestrogenic action (in words): weak estrogenic and no antiestrogenic action
MCF-7 cells; [7]
  Emax: 30%

## OCC(O)COc1ccc(/C(=C(/CCCl)c2ccccc2)c2ccccc2)cc1 (centres unmarked) [No. 20, (Z)-3-[4-(4-Chloro-1,2-diphenyl-but-1-enyl)phenoxy]propane-1,2-diol]
[1]
  Estrogenic and antiestrogenic action (in words): weak estrogenic and no antiestrogenic action
Ovariectomized rats [3]
  Maximal load (N) of femoral neck: 81.7 ± 15.2 N
Ovariectomized rats [4]
  Ash weight (mg) of tibial epiphyses: 35.0 ± 3.2 mg
Ovariectomized rats [5]
  Uterine size: 0.133 ± 0.032 g
[2]; 1 mg/kg
  Cholesterol level (mmol/l) in serum: 3.3 ± 0.6 mmol/L
[2]; 5 mg/kg
  Cholesterol level (mmol/l) in serum: 2.3 ± 0.4 mmol/L
[2]
  Effect on cholesterol (in words): decrease cholesterol
MCF-7 cells; With estradiol (E2)
  cytotoxicity at 10 µM: 60%
MCF-7 cells; Without estradiol (E2)
  cytotoxicity at 10 µM: 5%
MCF-7 cells; With estradiol (E2), 1 μM
  inhibition at 1 µM: 25%
MCF-7 cells; [7]
  Emax: 8%

## CN(C)CCOc1ccc(/C(=C(/CCCl)c2ccc(F)cc2)c2ccccc2)cc1 [No. 25, (Z)-(2-{4-[4-Chloro-2-(4-fluorophenyl)-1-phenylbut-1-enyl]phenoxy}ethyl)-dimethylamine]
[1]
  Estrogenic and antiestrogenic action (in words): weak estrogenic and no antiestrogenic action

## CN(C)CCSc1ccc(/C(=C(/CCCl)c2ccccc2)c2ccccc2)cc1 [No. 32, (Z)-1-[4-(2-Dimethylaminoethylsulfanyl)phenyl]-1,2-diphenyl-4-chloro-but-1-ene]
[1]
  Estrogenic and antiestrogenic action (in words): weak estrogenic and no antiestrogenic action
MCF-7 cells; With estradiol (E2)
  cytotoxicity at 10 µM: 90%
MCF-7 cells; Without estradiol (E2)
  cytotoxicity at 10 µM: 86%
MCF-7 cells; With estradiol (E2), 1 μM
  inhibition at 1 µM: 0%
MCF-7 cells; [7]
  Emax: 11%

## CN(C)CCOc1cccc(/C(=C(/CCCl)c2ccccc2)c2ccccc2)c1 [No. 33, (Z)-{2-[3-(4-Chloro-1,2-diphenylbut-1-enyl)phenoxy]ethyl}dimethylamine]
[2]
  Effect on cholesterol (in words): decrease cholesterol
MCF-7 cells; [7]
  Emax: 20%
MCF-7 cells; Table 2
  Cytotoxic action (in words): weak

## OCCSc1ccc(/C(=C(/CCCl)c2ccccc2)c2ccccc2)cc1 [No. 36, (Z)-2-[4-(4-Chloro-1,2-diphenyl-but-1-enyl)-phenylsulfanyl]ethanol]
[1]
  Estrogenic and antiestrogenic action (in words): weak estrogenic and no antiestrogenic action
MCF-7 cells; With estradiol (E2)
  cytotoxicity at 10 µM: 37%
MCF-7 cells; Without estradiol (E2)
  cytotoxicity at 10 µM: 17%
MCF-7 cells; With estradiol (E2), 1 μM
  inhibition at 1 µM: 13%
MCF-7 cells; [7]
  Emax: 8%

## C#CCN(C)CCOc1ccc(/C(=C(/CCCl)c2ccccc2)c2ccccc2)cc1 [No. 44, (Z)-{2-[4-(4-Chloro-1,2-diphenylbut-1-enyl)phenoxy]ethyl}-methylprop-2-ynylamine]
[1]
  Estrogenic and antiestrogenic action (in words): weak estrogenic and no antiestrogenic action
MCF-7 cells; With estradiol (E2)
  cytotoxicity at 10 µM: 95%
MCF-7 cells; Without estradiol (E2)
  cytotoxicity at 10 µM: 78%
MCF-7 cells; With estradiol (E2), 1 μM
  inhibition at 1 µM: 8%
MCF-7 cells; [7]
  Emax: 24%

## CC/C(=C(\c1ccccc1)c1ccc(OCCN(C)C)cc1)c1ccccc1 [Tamoxifen, reference compound]
[6]
  Disappeared tumors (per cent of total tumor number): 0%
  Growing tumors (per cent of total tumor number): 36%
  Regressing tumors (per cent of total tumor number): 8%
  Stable tumors (per cent of total tumor number): 56%

## CN(C)CCOc1ccc(/C(=C(/CCCl)c2ccccc2)c2ccccc2)cc1 [Toremifene, reference compound]
[6]
  Disappeared tumors (per cent of total tumor number): 10%
  Growing tumors (per cent of total tumor number): 31%
  Regressing tumors (per cent of total tumor number): 11%
  Stable tumors (per cent of total tumor number): 51%

## E-3-(4-Chloro-1-{4-[2-(2-hydroxyethoxy)ethoxy]phenyl}-2-phenylbut-1-enyl)phenol [Example 11]
[1]
  Estrogenic and antiestrogenic action (in words): weak estrogenic and no antiestrogenic action
MCF-7 cells; With estradiol (E2), 1 μM
  Antagonism at 1 μM (% of full antagonism): 0 % of full antagonism
MCF-7 cells; With estradiol (E2)
  Maximal Cell Kill (% fraction of dead cells): 55 % fraction of dead cells
MCF-7 cells; Without estradiol (E2)
  Maximal Cell Kill (% fraction of dead cells): 26 % fraction of dead cells
MCF-7 cells; [7]
  Maximal Agonism (% of E2): 14 % of E2

Reference: patent US6875775B2, “Triphenylalkene derivatives and their use as selective estrogen receptor modulators” (Hormos Medical Oy LTD, priority 1999, dated 2005)
